Values quoted from earlier work as cited in US20190343774A1, “Compositions and Methods for Treating Neurologic Disorders” (PALUPA MEDICAL LTD., priority 2011, published 2019).

System: relapsing multiple sclerosis

Substance | decrease of the possibility of disability accumulation (known) [%] | decrease on ARR (known) [%] | reduction of the annualized relapse rate (two-year trials)
Tysabri®: monoclonal antibody; second-line MS drug | 43 | 68 | –
glatiramer acetate | – | – | about one third
